Patent publication US10174016B2 (BAYER AKTIENGESELLSCHAFT, priority 2014, dated 2019)

Columns and labels:
human P2X2/3 receptor = human P2X2/3 receptor (Homo sapiens (Human), UniProt P56373+Q9UBL9); test: Intracellular calcium measurement (FLIPR, Fluo-4) of antagonist activity at human P2X2/3 receptors; format: cell-based; details: human P2X2/3, FLIPR calcium assay, agonist α,β-Me-ATP; read-out: hP2X2/3 IC50
Experimental: (§1) Intracellular Calcium Measurement to Assess Antagonist Activity at Human P2X3 and Human P2X2/3 Receptors
(§2) A fluorescent imaging plate reader (FLEX/FLIPR station; Molecular Devices) was used to monitor intracellular calcium levels using the calcium-chelating dye Fluo-4 (Molecular Probes). […] Cells expressing purinergic receptors P2X3 (human) or P2X2/3 (human) were plated at a density of 15,000 cells/well in collagen-coated 384-well plates approximately 20 hours before beginning the assay. […] The test compound was added in a volume of 5 μl and allowed to incubate for 30 min at 37° C. The final assay DMSO concentration is 1%. The agonist, α,β-Me-ATP, was added in a volume of 20 μl at a concentration representing the EC80 value. The fluorescence was measured for an interval of 90 sec at 2 sec intervals and analyzed based on the increase in peak relative fluorescence units (RFU) compared to the basal fluorescence. Peak fluorescence was used to determine the response to agonist obtained at each concentration of test compound by the following equation: % Response=100*(RFU(test compound)−RFU(control)/RFU(DMSO)−RFU(control))
(§3) The Examples were tested in triplicates per plate and mean values were plotted in Excel XLFit to determine IC50 values at the human P2X3 and human P2X2/3 receptors, percentage of maximal inhibition and the Hill coefficients.

human P2X3 receptor = human P2X3 receptor (Homo sapiens (Human), UniProt P56373); test: Intracellular calcium measurement (FLIPR, Fluo-4) of antagonist activity at human P2X3 receptors; format: cell-based; details: human P2X3, FLIPR calcium assay, agonist α,β-Me-ATP; read-out: hP2X3 IC50
human P2X3 receptor, sequence (P56373 whole entry): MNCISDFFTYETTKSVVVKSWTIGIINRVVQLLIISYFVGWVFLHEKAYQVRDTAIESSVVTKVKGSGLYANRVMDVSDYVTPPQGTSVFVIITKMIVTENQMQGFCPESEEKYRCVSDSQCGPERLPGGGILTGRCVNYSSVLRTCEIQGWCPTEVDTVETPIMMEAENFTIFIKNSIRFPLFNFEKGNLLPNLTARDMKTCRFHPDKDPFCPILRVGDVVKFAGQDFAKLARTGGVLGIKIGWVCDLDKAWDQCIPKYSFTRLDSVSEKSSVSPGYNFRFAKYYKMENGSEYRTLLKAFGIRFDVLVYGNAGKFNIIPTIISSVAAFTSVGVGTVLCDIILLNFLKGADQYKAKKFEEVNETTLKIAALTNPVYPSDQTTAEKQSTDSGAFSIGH
Experimental: as §1, §2, §3

human P2X2/3 receptor, sequence (P56373 whole entry): as above
human P2X2/3 receptor, sequence (Q9UBL9 whole entry): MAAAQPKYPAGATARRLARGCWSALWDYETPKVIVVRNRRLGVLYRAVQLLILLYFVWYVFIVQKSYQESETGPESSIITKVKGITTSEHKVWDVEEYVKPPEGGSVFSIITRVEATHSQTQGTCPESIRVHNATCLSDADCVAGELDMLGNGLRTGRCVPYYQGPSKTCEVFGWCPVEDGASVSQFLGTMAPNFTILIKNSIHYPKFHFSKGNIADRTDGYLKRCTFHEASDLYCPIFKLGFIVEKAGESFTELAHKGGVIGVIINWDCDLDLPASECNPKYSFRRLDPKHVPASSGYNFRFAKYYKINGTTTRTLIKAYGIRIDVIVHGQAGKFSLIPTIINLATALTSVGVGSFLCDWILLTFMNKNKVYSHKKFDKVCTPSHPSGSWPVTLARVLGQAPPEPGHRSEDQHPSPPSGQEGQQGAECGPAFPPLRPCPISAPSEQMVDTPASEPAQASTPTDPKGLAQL

Row | Compound | IC50 (human P2X2/3 receptor) [nM] | IC50 (human P2X3 receptor) [nM]
1 | CC#CCOc1cc(C(=O)N[C@H](C)c2nnc(C)s2)cc(-c2ncc(C)s2)c1 [Example 41, 3-(But-2-yn-1-yloxy)-N-[(1R)-1-(5-methyl-1,3,4-thiadiazol-2-yl)ethyl]-5-(5-methyl-1,3-thiazol-2-yl)benzamide] | 1590 | 130
2 | Cc1ncc([C@@H](C)NC(=O)c2cc(OC3COC3)cc(-c3ncc(C)s3)c2)cn1 [Example 43, N-[(1R)-1-(2-Methylpyrimidin-5-yl)ethyl]-3-(5-methyl-1,3-thiazol-2-yl)-5-(oxetan-3-yloxy)benzamide] | 2690 | 50
3 | Cc1ccc(CNC(=O)c2cc(OC3COC3)cc(-c3ncc(C)s3)c2)nn1 [Example 45, N-[(6-Methylpyridazin-3-yl)methyl]-3-(5-methyl-1,3-thiazol-2-yl)-5-(oxetan-3-yloxy)benzamide] | 1510 | 212
4 | Cc1cnc(-c2cc(OC3COC3)cc(C(=O)NC(C)c3ncc(F)cc3Cl)c2)s1 (stereo not drawn) [Example 49, N-[1-(3-Chloro-5-fluoropyridin-2-yl)ethyl]-3-(5-methyl-1,3-thiazol-2-yl)-5-(oxetan-3-yloxy)benzamide] | 1520 | 132
5 | Cc1cnc(-c2cc(OC3COC3)cc(C(=O)N[C@H](C)c3nnc(C)s3)c2)s1 [Example 50, N-[(1R)-1-(5-Methyl-1,3,4-thiadiazol-2-yl)ethyl]-3-(5-methyl-1,3-thiazol-2-yl)-5-(oxetan-3-yloxy)benzamide] | 982 | 77
6 | CC[C@@H](NC(=O)c1cc(OC2COC2)cc(-c2ncc(C)s2)c1)c1cnc(C(F)(F)F)nc1 [Example 53, 3-(5-methyl-1,3-thiazol-2-yl)-5-(oxetan-3-yloxy)-N-{(1R)-1-[2-(trifluoromethyl)pyrimidin-5-yl]propyl}benzamide] | 2740 | 318
7 | Cc1cnc(CNC(=O)c2cc(OC[C@@H]3CCCO3)cc(-c3ncc(C)s3)c2)cn1 [Example 56, N-[(5-Methylpyrazin-2-yl)methyl]-3-(5-methyl-1,3-thiazol-2-yl)-5-[(2S)-tetrahydrofuran-2-ylmethoxy]benzamide] | ≥ 10000 | 148
8 | Cc1cnc([C@@H](C)NC(=O)c2cc(OC[C@@H]3CCCO3)cc(-c3ncc(C)s3)c2)cn1 [Example 57, N-[(1R)-1-(5-Methylpyrazin-2-yl)ethyl]-3-(5-methyl-1,3-thiazol-2-yl)-5-[(2S)-tetrahydrofuran-2-ylmethoxy]benzamide] | 2840 | 25
9 | Cc1ccc(CNC(=O)c2cc(OC[C@H]3CCOC3)cc(-c3ncc(C)s3)c2)nn1 [Example 66, N-[(6-Methylpyridazin-3-yl)methyl]-3-(5-methyl-1,3-thiazol-2-yl)-5-[(3S)-tetrahydrofuran-3-ylmethoxy]benzamide] | 6300 | 35
10 | Cc1cnc(CNC(=O)c2cc(OC[C@H]3CCOC3)cc(-c3ncc(C)s3)c2)cn1 [Example 67, N-[(5-Methylpyrazin-2-yl)methyl]-3-(5-methyl-1,3-thiazol-2-yl)-5-[(3S)-tetrahydrofuran-3-ylmethoxy]benzamide] | ≥ 10000 | 186
11 | Cc1cnc([C@@H](C)NC(=O)c2cc(OC[C@H]3CCOC3)cc(-c3ncc(C)s3)c2)cn1 [Example 68, N-[(1R)-1-(5-Methylpyrazin-2-yl)ethyl]-3-(5-methyl-1,3-thiazol-2-yl)-5-[(3S)-tetrahydrofuran-3-ylmethoxy]benzamide] | 1620 | 44

Other lines, results leading:

Row | IC50 (human P2X2/3 receptor) [nM] | IC50 (human P2X3 receptor) [nM] | Compound
12 | 383 | 16 | CC#CCOc1cc(C(=O)N[C@H](C)c2cnc(C(F)(F)F)nc2)cc(-c2ncc(C)s2)c1 [Example 40, 3-(But-2-yn-1-yloxy)-5-(5-methyl-1,3-thiazol-2-yl)-N-[(1R)-1-[2-(trifluoromethyl)pyrimidin-5-yl]ethyl]benzamide]
13 | 370 | 11 | Cc1cnc(-c2cc(OC3COC3)cc(C(=O)NC(C)c3ncc(Cl)cc3F)c2)s1 (stereo not drawn) [Example 44, N-[1-(5-Chloro-3-fluoropyridin-2-yl)ethyl]-3-(5-methyl-1,3-thiazol-2-yl)-5-(oxetan-3-yloxy)benzamide]
14 | 389 | 10 | Cc1cnc(-c2cc(OC3COC3)cc(C(=O)N[C@H](C)c3ccc(Cl)cn3)c2)s1 [Example 46, N-[(1R)-1-(5-Chloropyridin-2-yl)ethyl]-3-(5-methyl-1,3-thiazol-2-yl)-5-(oxetan-3-yloxy)benzamide]
15 | 621 | 82 | Cc1ccc([C@@H](C)NC(=O)c2cc(OC3COC3)cc(-c3ncc(C)s3)c2)nn1 [Example 47, N-[(1R)-1-(6-Methylpyridazin-3-yl)ethyl]-3-(5-methyl-1,3-thiazol-2-yl)-5-(oxetan-3-yloxy)benzamide]
16 | 564 | 194 | Cc1cnc(-c2cc(OC3COC3)cc(C(=O)NCc3ccc(C(F)(F)F)nn3)c2)s1 [Example 52, 3-(5-methyl-1,3-thiazol-2-yl)-5-(oxetan-3-yloxy)-N-{[6-(trifluoromethyl)pyridazin-3-yl]methyl}benzamide]
17 | 461 | 4 | Cc1cnc(-c2cc(OC[C@@H]3CCCO3)cc(C(=O)N[C@H](C)c3cnc(C(F)(F)F)nc3)c2)s1 [Example 58, 3-(5-Methyl-1,3-thiazol-2-yl)-5-[(2S)-tetrahydrofuran-2-ylmethoxy]-N-{(1R)-1-[2-(trifluoromethyl)pyrimidin-5-yl]ethyl}benzamide]
18 | 507 | 13 | Cc1ccc([C@@H](C)NC(=O)c2cc(OC[C@@H]3CCCO3)cc(-c3ncc(C)s3)c2)nn1 [Example 59, N-[(1R)-1-(6-Methylpyridazin-3-yl)ethyl]-3-(5-methyl-1,3-thiazol-2-yl)-5-[(2S)-tetrahydrofuran-2-ylmethoxy]benzamide]
19 | 578 | 11 | Cc1cnc(-c2cc(OC[C@@H]3CCCO3)cc(C(=O)N[C@H](C)c3ccc(C(F)(F)F)nn3)c2)s1 [Example 60, 3-(5-Methyl-1,3-thiazol-2-yl)-5-[(2S)-tetrahydrofuran-2-ylmethoxy]-N-{(1R)-1-[6-(trifluoromethyl)pyridazin-3-yl]ethyl}benzamide]
20 | 428 | 14 | Cc1ccc([C@@H](C)NC(=O)c2cc(OC[C@H]3CCCO3)cc(-c3ncc(C)s3)c2)nn1 [Example 61, N-[(1R)-1-(6-methylpyridazin-3-yl)ethyl]-3-(5-methyl-1,3-thiazol-2-yl)-5-[(2R)-tetrahydrofuran-2-ylmethoxy]benzamide]
21 | 1440 | 85 | Cc1ccc(CNC(=O)c2cc(OC[C@H]3CCCO3)cc(-c3ncc(C)s3)c2)nn1 [Example 62, N-[(6-Methylpyridazin-3-yl)methyl]-3-(5-methyl-1,3-thiazol-2-yl)-5-[(2R)-tetrahydrofuran-2-ylmethoxy]benzamide]
22 | 118 | 4 | Cc1cnc(-c2cc(OC[C@H]3CCCO3)cc(C(=O)N[C@H](C)c3cnc(C(F)(F)F)nc3)c2)s1 [Example 63, 3-(5-Methyl-1,3-thiazol-2-yl)-5-[(2R)-tetrahydrofuran-2-ylmethoxy]-N-{(1R)-1-[2-(trifluoromethyl)pyrimidin-5-yl]ethyl}benzamide]
23 | 984 | 53 | Cc1cnc([C@@H](C)NC(=O)c2cc(OC[C@H]3CCCO3)cc(-c3ncc(C)s3)c2)cn1 [Example 64, N-[(1R)-1-(5-methylpyrazin-2-yl)ethyl]-3-(5-methyl-1,3-thiazol-2-yl)-5-[(2R)-tetrahydrofuran-2-ylmethoxy]benzamide]
24 | 54 | 3 | Cc1cnc(-c2cc(OC[C@H]3CCOC3)cc(C(=O)NC(C)c3ncc(Cl)cc3F)c2)s1 (stereo partly drawn) [Example 65, N-[1-(5-Chloro-3-fluoropyridin-2-yl)ethyl]-3-(5-methyL-1,3-thiazol-2-yl)-5-[(3S)-tetrahydrofuran-3-ylmethoxy]benzamide]
25 | 78 | 3 | Cc1cnc(-c2cc(OC[C@H]3CCOC3)cc(C(=O)N[C@H](C)c3cnc(C(F)(F)F)nc3)c2)s1 [Example 70, 3-(5-Methyl-1,3-thiazol-2-yl)-5-[(3S)-tetrahydrofuran-3-ylmethoxy]-N-[(1R)-1-[2-(trifluoromethyl)pyrimidin-5-yl]ethyl]benzamide]
26 | 315 | 15 | Cc1ccc([C@@H](C)NC(=O)c2cc(OC[C@H]3CCOC3)cc(-c3ncc(C)s3)c2)nn1 [Example 71, N-[(1R)-1-(6-Methylpyridazin-3-yl)ethyl]-3-(5-methyl-1,3-thiazol-2-yl)-5-[(3S)-tetrahydrofuran-3-ylmethoxy]benzamide]
27 | 330 | 11 | Cc1cnc(-c2cc(OC[C@H]3CCOC3)cc(C(=O)N[C@H](C)c3ccc(C(F)(F)F)nn3)c2)s1 [Example 72, 3-(5-Methyl-1,3-thiazol-2-yl)-5-[(3S)-tetrahydrofuran-3-ylmethoxy]-N-[(1R)-1-[6-(trifluoromethyl)pyridazin-3-yl]ethyl]benzamide]
